Measurements: ChEMBL document CHEMBL5050850, “Compositions and methods of using the same for treatment of neurodegenerative and mitochondrial disease” (2020)
≈ marks a conversion by molar mass, not a printed value.

Legend:
[1] = Solubility of compound in PBS; assay type: physicochemical
[2] = Induction of mitophagy in human HeLa MKYP cells treated with FCCP/oligomycin for 6 hrs and measured by FACS analysis; assay type: functional, cell-based
[3] = system: HeLa; test: Cytotoxicity against human HeLa MKYP cells assessed as percentage of DAPI-positive cells at 50 uM and measured by DAPI staining method; assay type: toxicity, cell-based
[4] = system: HeLa; test: Cytotoxicity against human HeLa MKYP cells assessed as cell death at 25 uM treated with FCCP/oliogmycin and measured DAPI staining method assay relative to control; assay type: toxicity, cell-based
[5] = system: HeLa; test: Cytotoxicity against human HeLa MKYP cells assessed as cell death at 25 uM and measured DAPI staining method assay relative to control; assay type: toxicity, cell-based
[6] = Ratio of highest compound concentration with no observable mitotoxicity to EC50 of compound to induce mitophagy in human HeLa MKYP cells; assay type: functional

solubility [1] | EC50 [2] | Compound | Activity [3] | Activity [4] | Activity [5] | Ratio [6]
1 µM (≈ 0.357 µg/mL) | 2980 nM | N#Cc1cccc2c1CCCC2Nc1ncnc2[nH]c(C(F)(F)F)cc12 (configuration not stated) | 71.2% | 71.2% | 57.1% | 8.39
– | 1330 nM | CN1CC[C@H](Nc2ncnc3[nH]c(C(F)(F)F)cc23)c2ccccc21 | 59% | 16% | 2.51% | 30
1 µM (≈ 0.346 µg/mL) | 4180 nM | C[C@@H]1CCc2ccccc2[C@H]1Nc1ncnc2[nH]c(C(F)(F)F)cc12 | 23.8% | 23.8% | 17.9% | –

Further lines, the compound ahead of its results:

Compound | solubility [1] | EC50 [2] | Activity [3] | Activity [4] | Activity [5] | Ratio [6]
c1ccc2c(c1)CCC[C@H]2Nc1ncnc2[nH]c(C3CC3)cc12 | 1 µM (≈ 0.304 µg/mL) | 470 nM | 16.6% | 14.9% | 9.32% | 53.2
OC1CCc2ccccc2C1Nc1ncnc2[nH]c(C(F)(F)F)cc12 (configuration not stated) | 1 µM (≈ 0.348 µg/mL) | > 50000 nM | 12.8% | 12.8% | 3.79% | –
CO[C@H]1CCc2ccccc2[C@@H]1Nc1ncnc2[nH]c(C(F)(F)F)cc12 | 1.31 µM (≈ 0.475 µg/mL) | 1480 nM | 7.7% | 7.67% | 5.15% | –
CO[C@@H]1CCc2ccccc2[C@H]1Nc1ncnc2[nH]c(C(F)(F)F)cc12 | 1 µM (≈ 0.362 µg/mL) | 22100 nM | 18.4% | 18.4% | 15.3% | –
